In US20120239131A1, “METHODS AND APPARATUS FOR TREATMENT OF ANEURYSMAL TISSUE” (Medtronic Vascular, Inc., priority 2011, published 2012):
“Also recorded” adds a separate entry of the source.

Columns and labels:
Assay type in all cases: in vivo, ApoE−/− mice
CXCR4 = assay: Aortic mural gene expression, RT-PCR (TLDA); settings: fold change over ApoE−/− control; aorta, 28 days Ang II infusion
Procedure: (§1) ApoE−/− mice used in this study were divided into different pretreatment groups: 1) Fluvastatin-MF; 2) Doxycycline-MD; 3) Irbesartan-MI; 4) Telmisartan-MT; 5) Control (water) and fed medicated chow or medicated drinking water 1 week prior to pump implantation. AngII (1000 ng·kg^−1 of body weight·min^−1) was infused subcutaneously via Alzet mini-osmotic pumps for 28 days. All mice were maintained on the medicated chow (MI & MT) or medicated drinking water (MF & MD) treatments which were delivered daily for a total of 28 days following pump implantation.
(§2) In order to determine the effect of the various treatments on the progressive enlargement of the experimental AAAs the mice were followed with high frequency trans-abdominal ultrasound. Maximum aortic diameter was measured and recorded prior to pump implantation and then at 3, 7, 14, 21, and 28 days. All mice were sacrificed 28 days after pump implantation. Aortae were harvested and subjected to either histological analysis (Elastic Masson trichome, MAC2, CD31 and TUNEL staining) and analysis of mural gene expression. Plasma drug concentrations of experimental compounds were quantified on the day of sacrifice using high performance liquid chromatography (HPLC).
(§3) Total RNA was extracted from homogenized aortas using the Qiazol lysis reagent and RNeasy Lipid Tissue Mini kit. DNAse treatment was included in the procedure. RNA concentration was determined utilizing the Quant iT RNA assay kit. Complimentary deoxyribonucleic acid (cDNA) was synthesized from 1 μg RNA using High reverse cDNA transcription kit. Briefly the reaction tubes containing RNA, reverse transcriptase, buffer, RNAse inhibitor, and nuclease free water were incubated at 25° C. for 10 minutes to allow annealing. Reverse transcription was performed at 37° C. for 120 min, followed by a 5 sec incubation at 85° C. to inactivate the reverse transcriptase enzyme. The cDNA samples were cooled at 4° C. and stored at −80° C. until further use.
(§4) Real time PCR was performed using a 384-well Taqman low density array (TLDA) card. Each sample specific PCR mix contained 50 ng of total RNA converted to cDNA. The PCR reaction for Taqman assays contained 50 μl Master Mix (Taqman Universal PCR Master Mix,) and 50 ul of cDNA and RNAase free water. Assays were performed to include appropriate controls (no template control). The RT-PCR protocol included an initial step of 50° C. (2 minutes) […], denaturation by a hot start at 95° C. for 10 min, followed by 40 cycles of a 2 step program (denaturation at 95° C. for 15 secs for primer annealing/extension at 60° C. for 1 min). Fluorescence data was collected at 60° C. Fluorescence was quantified with ABI PRISM 7900HT Sequence Detection System. To verify amplification of a specific target cDNA, data generated was analyzed using SDS 2.2.3 software (Sequence Detection System Software, Applied Biosystems). For all amplification plots, the baseline data were set with the automatic CT function available with SDS 2.2.3 calculating the optimal baseline range and threshold value by using the AutoCT algorithm. According to the manufacturer's instruction, a CT value of ≧39 corresponds to nonspecific amplification marking the limits of detection. For endogenous control GAPDH was normalized to B2M. For relative quantification (RQ), pooled ApoE−/− control was used as the calibrator (with expression equal to 1).

CCR2 = assay: Aortic mural gene expression, RT-PCR (TLDA); settings: fold change over ApoE−/− control; aorta, 28 days Ang II infusion
Procedure: as §1, §2, §3, §4

CCR5 = assay: Aortic mural gene expression, RT-PCR (TLDA); settings: fold change over ApoE−/− control; aorta, 28 days Ang II infusion
Procedure: as §1, §2, §3, §4

CCL2 = assay: Aortic mural gene expression, RT-PCR (TLDA); settings: fold change over ApoE−/− control; aorta, 28 days Ang II infusion
Procedure: as §1, §2, §3, §4

Cybb = assay: Aortic mural gene expression, RT-PCR (TLDA); settings: fold change over ApoE−/− control; aorta, 28 days Ang II infusion
Procedure: as §1, §2, §3, §4

Cathepsin S = assay: Aortic mural gene expression, RT-PCR (TLDA); settings: fold change over ApoE−/− control; aorta, 28 days Ang II infusion
Procedure: as §1, §2, §3, §4

ITGB2 = assay: Aortic mural gene expression, RT-PCR (TLDA); settings: fold change over ApoE−/− control; aorta, 28 days Ang II infusion
Procedure: as §1, §2, §3, §4

MMP-8 = assay: Aortic mural gene expression, RT-PCR (TLDA); settings: fold change over ApoE−/− control; aorta, 28 days Ang II infusion
Procedure: as §1, §2, §3, §4

Fibronectin -1 = assay: Aortic mural gene expression, RT-PCR (TLDA); settings: fold change over ApoE−/− control; aorta, 28 days Ang II infusion
Procedure: as §1, §2, §3, §4

Osteopontin = assay: Aortic mural gene expression, RT-PCR (TLDA); settings: fold change over ApoE−/− control; aorta, 28 days Ang II infusion
Procedure: as §1, §2, §3, §4

MAPK8 = assay: Aortic mural gene expression, RT-PCR (TLDA); settings: fold change over ApoE−/− control; aorta, 28 days Ang II infusion
Procedure: as §1, §2, §3, §4

LOX = assay: Aortic mural gene expression, RT-PCR (TLDA); settings: fold change over ApoE−/− control; aorta, 28 days Ang II infusion
Procedure: as §1, §2, §3, §4

Vav1 = assay: Aortic mural gene expression, RT-PCR (TLDA); settings: fold change over ApoE−/− control; aorta, 28 days Ang II infusion
Procedure: as §1, §2, §3, §4

Runx3 = assay: Aortic mural gene expression, RT-PCR (TLDA); settings: fold change over ApoE−/− control; aorta, 28 days Ang II infusion
Procedure: as §1, §2, §3, §4

Rac2 = assay: Aortic mural gene expression, RT-PCR (TLDA); settings: fold change over ApoE−/− control; aorta, 28 days Ang II infusion
Procedure: as §1, §2, §3, §4

ITGAL = assay: Aortic mural gene expression, RT-PCR (TLDA); settings: fold change over ApoE−/− control; aorta, 28 days Ang II infusion
Procedure: as §1, §2, §3, §4

HMOX 1 = assay: Aortic mural gene expression, RT-PCR (TLDA); settings: fold change over ApoE−/− control; aorta, 28 days Ang II infusion
Procedure: as §1, §2, §3, §4

TNF-α = assay: Aortic mural gene expression, RT-PCR (TLDA); settings: fold change over ApoE−/− control; aorta, 28 days Ang II infusion
Procedure: as §1, §2, §3, §4

TIMP2 = assay: Aortic mural gene expression, RT-PCR (TLDA); settings: fold change over ApoE−/− control; aorta, 28 days Ang II infusion
Procedure: as §1, §2, §3, §4

Cathepsin B = assay: Aortic mural gene expression, RT-PCR (TLDA); settings: fold change over ApoE−/− control; aorta, 28 days Ang II infusion
Procedure: as §1, §2, §3, §4

IL-7 = assay: Aortic mural gene expression, RT-PCR (TLDA); settings: fold change over ApoE−/− control; aorta, 28 days Ang II infusion
Procedure: as §1, §2, §3, §4

Tgfβ1 = assay: Aortic mural gene expression, RT-PCR (TLDA); settings: fold change over ApoE−/− control; aorta, 28 days Ang II infusion
Procedure: as §1, §2, §3, §4

MMP-12 = assay: Aortic mural gene expression, RT-PCR (TLDA); settings: fold change over ApoE−/− control; aorta, 28 days Ang II infusion
Procedure: as §1, §2, §3, §4

aneurysm = assay: Aneurysm incidence over time, ApoE−/−+Ang II AAA model; settings: aneurysm = dissection or more than 50% increase in diameter; versus doxycycline and saline control
Procedure: as §1, §2
Aneurysm was defined as either the presence of dissection or more than 50% increase in diameter.

AAA = assay: Aortic diameter by ultrasonography, ApoE−/−+Ang II AAA model; settings: pretreatment 1 week before Ang II infusion, followed to 28 days; versus control and doxycycline
Description: The ApoE^−/−+Ang II AAA model is well established and supported by current scientific literature. Mice genetically predisposed to hypercholesterolemia develop aneurysms when treated with angiotensin II. Aneurysms generally develop within the first week after pump implantation and share many important pathologic characteristics with human AAA disease. ApoE−/− mice used in this study were divided into different pretreatment groups: 1) Fluvastatin-MF; 2) Doxycycline-MD; 3) Irbesartan-MI; 4) Telmisartan-MT; 5) Control (water) and fed medicated chow or medicated drinking water 1 week prior to pump implantation. AngII (1000 ng·kg^−1 of body weight·min^−1) was infused subcutaneously via Alzet mini-osmotic pumps for 28 days. All mice were maintained on the medicated chow (MI & MT) or medicated drinking water (MF & MD) treatments which were delivered daily for a total of 28 days following pump implantation. In order to determine the effect of the various treatments on the progressive enlargement of the experimental AAAs the mice were followed with high frequency trans-abdominal ultrasound. Maximum aortic diameter was measured and recorded prior to pump implantation and then at 3, 7, 14, 21, and 28 days. All mice were sacrificed 28 days after pump implantation. Aortae were harvested and subjected to either histological analysis (Elastic Masson trichome, MAC2, CD31 and TUNEL staining) and analysis of mural gene expression. Plasma drug concentrations of experimental compounds were quantified on the day of sacrifice using high performance liquid chromatography (HPLC).

[1] = tested on: genes involved in the pathophysiology of AAA; assay: Drug inhibition effect on differentially expressed genes, overall
Procedure: as §1, §2, §3, §4

[2] = Plasma drug content by HPLC; settings: mouse plasma on day of sacrifice
Procedure: as §2

For `CCCCC1=NC2(CCCC2)C(=O)N1Cc1ccc(-c2ccccc2-c2nnn[nH]2)cc1` [Irbesartan], the CXCR4 expression (CXCR4) was “− (0 to 1 = −)”, the CCR2 expression (CCR2) was “− (0 to 1 = −)” and the CCR5 expression (CCR5) was “− (0 to 1 = −)”. The CCL2 expression (CCL2) was “− (0 to 1 = −)”, the Cybb expression (Cybb) was “− (0 to 1 = −)” and the “Cathepsin S expression” value (Cathepsin S) was “− (0 to 1 = −)”. For the same compound, the ITGB2 expression (ITGB2) was “− (0 to 1 = −)”, the MMP-8 expression (MMP-8) was “++ (1.51 to 3 = ++)” and the “Fibronectin -1 expression” value (Fibronectin -1) was “− (0 to 1 = −)”. For the same compound, the Osteopontin expression (Osteopontin) was “++ (1.51 to 3 = ++)”, the MAPK8 expression (MAPK8) was “− (0 to 1 = −)” and the LOX expression (LOX) was “− (0 to 1 = −)”. The Vav1 expression (Vav1) was “− (0 to 1 = −)”, the Runx3 expression (Runx3) was “− (0 to 1 = −)” and the Rac2 expression (Rac2) was “− (0 to 1 = −)”. The ITGAL expression (ITGAL) was “− (0 to 1 = −)”, the “HMOX 1 expression” value (HMOX 1) was “− (0 to 1 = −)” and the TNF-α expression (TNF-α) was “− (0 to 1 = −)”. For the same compound, the TIMP2 expression (TIMP2) was “− (0 to 1 = −)”, the “Cathepsin B expression” value (Cathepsin B) was “− (0 to 1 = −)” and the IL-7 expression (IL-7) was “− (0 to 1 = −)”. The Tgfβ1 expression (Tgfβ1) was “− (0 to 1 = −)”, the MMP-12 expression (MMP-12) was “+++ (3.1 to 10 = +++)” and the “Inhibition of aneurysm development (aneurysm incidence)” value (aneurysm) was “effective in inhibiting aneurysm development; also recorded: inhibited aneurysm development well”. For the same compound, the “Inhibition of aneurysm development/growth (aortic diameter)” value (AAA) was “effective in inhibiting/preventing aneurysm development”, the “Down-regulation of genes involved in the pathophysiology of AAA” value ([1]; ApoE−/− + Ang II AAA model, summary of Table 2) was “down-regulating the expression of genes” and the “Total Score” value ([1]; sum of heat map grades over 25 genes, ApoE−/− + Ang II group scored 55) was 7. The Plasma drug content [2] was “lower plasma concentration”.
